Experimental data taken from PubChem BioAssay AID2305 (GlaxoSmithKline (GSK), 2010).

The molecules below were run on P. falciparum 3D7 growth, pLDH absorbance (assay: P. falciparum 3D7 growth inhibition, dose response, strain 3D7 (AID 2305)).

`NC(=O)c1cccc(Nc2nccc(Nc3ccc(Oc4c(Cl)cccc4Cl)c(Cl)c3)n2)c1` and `COc1ccc2nc(C)cc(Nc3ccc(Oc4ccc5ccccc5c4)c(Cl)c3)c2c1` are within 1.5-fold of each other in IC50: 870 nM for the first, 690 nM for the second.

`CC(C)N1CCC(N(Cc2ccc(-c3ccc(C(F)(F)F)cc3)cc2)C(=O)Cn2c(SCc3cccc(F)c3F)cc(=O)c3ccccc32)CC1` and `O=C(NCc1cccc(F)c1)Nc1cccc(-c2ccc(-c3nc4ccc(C(F)(F)F)cc4[nH]3)cc2)c1` are within 1.5-fold of each other in IC50: 820 nM for the first, 770 nM for the second.

Going from `O=C(Nc1ccc(-c2nc3ccccc3[nH]2)cc1)c1ccc(S(=O)(=O)N2CCCCC2)cc1` to `O=C(Nc1cccc(-c2cccc(-c3nc4ccccc4[nH]3)c2)c1)c1ccncc1`, the IC50 falls from 750 nM to 480 nM (1.6-fold). The second is the more potent here.

Going from `OCCN1CCN(Cc2cccc(-c3ccc(-c4nc5ccc(C(F)(F)F)cc5[nH]4)cc3)c2)CC1` to `CN1CCN(Cc2ccc(-c3cccc(-c4nc5ccccc5[nH]4)c3)cc2)CC1`, the IC50 rises from 560 nM to 1390 nM (2.5-fold). The first is the more potent here.

First: CCc1cccc(-c2cc(=N)n(C)c3nc(N)[nH]c(=O)c23)c1
Second: Cc1cccc2[nH]c(-c3ccc(-c4cccc(CNCc5cccc(N)c5)c4)cc3)nc12
The IC50 of the first is 2.9-fold higher: 1120 nM for the first, 390 nM for the second. The second is the more potent here.

`COc1ccc2c(NN=Cc3ccccc3F)ccnc2c1` and `COc1ccc2nc(C)cc(NCc3cccc4ccccc34)c2c1` are within 1.5-fold of each other in IC50: 210 nM for the first, 220 nM for the second.

First: O=C(NCCNc1nc(NCCNC(=O)Nc2ccccc2)c2ccc(=O)n(-c3c(F)cccc3F)c2n1)Nc1ccccc1
Second: CC(C)c1ccc(NC(=O)Nc2ccc(CCNCCCc3ccccc3)cc2)cc1
The IC50 of the first is 4.5-fold lower: 170 nM for the first, 760 nM for the second. The first is the more potent here.

`O=C(Nc1ccc(Cl)cc1)c1ccc(CN2CCCN(Cc3cccc(F)c3)CC2)cc1` and `CN(c1cc(NC(=O)c2ccc(F)cc2)ccn1)C1CCN(Cc2cccc(O)c2)CC1` are within 1.5-fold of each other in IC50: 1030 nM for the first, 920 nM for the second.

Going from `COc1ccccc1C1CCN(C2CCC(NC(=O)/C=C/c3ccc(C(F)(F)F)cc3)CC2)CC1` (centres undefined) to `O=C(C=Cc1ccc(-c2nc3ccccc3[nH]2)cc1)NC1CCN(Cc2ccccc2)CC1`, the IC50 falls from 1160 nM to 740 nM (1.6-fold).

Going from `O=c1ccc2ccc(F)c3c2n1CC3CN1CCC(NCc2cccc(-c3ccccc3F)c2)CC1` (centres undefined) to `O=C(c1cccc(-c2cccc(-c3nc4ccccc4[nH]3)c2)c1)N1CCCCC1CN1CCC(O)C1` (centres undefined), the IC50 falls from 1100 nM to 730 nM (1.5-fold). The second is the more potent here.

Going from `COc1ccc(C(=O)[C@H]2C[C@@H]2CN2CC=C(c3c(C)[nH]c4ccccc34)CC2)cc1` to `Oc1ccc(C2CNCCc3c2cc(O)c(OCc2ccccc2)c3Cl)cc1` (centres undefined), the IC50 rises from 300 nM to 720 nM (2.4-fold). The first is the more potent here.

Going from `O=C(Nc1cc(C(F)(F)F)cc(C(F)(F)F)c1)Nc1cc(C(F)(F)F)cc(C(F)(F)F)c1` to `COc1cc2c(cc1OC)C(C(=O)Nc1ccc(C(F)(F)F)cc1)C(c1cccs1)N(C)C2=O` (centres undefined), the IC50 falls from 730 nM to 160 nM (4.6-fold).

First: CNC(=C[N+](=O)[O-])NCCSCc1cc(C)c(CN(C)C)s1
Second: CCN(CC)CCCC(C)Nc1c2cc(OC)ccc2nc2cc(Cl)c([N+](=O)[O-])cc12 (centres undefined)
The IC50 of the first is 2.3-fold lower: 350 nM for the first, 790 nM for the second.

`O=C(Nc1ccc(OC2CCN(Cc3ccccc3)CC2)c(Cl)c1)c1ccsc1` and `CN1CC[C@@H](Oc2cc(NC(=O)Nc3ccccc3Br)ccc2Cl)C1` are within 1.5-fold of each other in IC50: 900 nM for the first, 1100 nM for the second.

Compared with `Brc1ccc(Nc2ccnc3cc(-c4nccs4)ccc23)cc1Oc1ccnc2cc(-c3nccs3)ccc12`, `Nc1nccc2ccc(-c3ccnc(NCc4cccnc4)n3)cc12` is 2.3-fold lower in IC50: 1060 nM for the first, 460 nM for the second. The second is the more potent here.

`CSC1=NC(=Nc2ccccc2C)C2(CCC(C(C)(C)C)CC2)N1c1ccccc1Cl` (centres undefined) and `CN1CCC(COC(=O)C(O)(c2ccccc2)c2ccccc2)C1` (centres undefined) are within 1.5-fold of each other in IC50: 800 nM for the first, 1000 nM for the second.

First: COc1cccc(C(=O)OC2=C3CCC(=O)C3(C)CCC2=O)c1 (centres undefined)
Second: COc1cccc(Nc2nnc(SCC(=O)NNC(=O)c3ccccn3)s2)c1
The IC50 of the first is 4.8-fold lower: 80 nM for the first, 380 nM for the second.

Going from `CCNc1cc(C)nc(Nc2ccc(NC(=O)c3ccccc3)cc2)n1` to `Cc1cc(Nc2nc(Nc3cccc(Cl)c3)nc3ccccc23)n[nH]1`, the IC50 falls from 1020 nM to 290 nM (3.5-fold). The second is the more potent here.

`Cc1cccc2[nH]c(-c3cccc(-c4ccc(CNCc5cccc(N)c5)cc4)c3)nc12` and `CNCCNCc1ccc(-c2ccc(-c3nc4ccc(C(F)(F)F)cc4[nH]3)cc2)cc1` are within 1.5-fold of each other in IC50: 260 nM for the first, 310 nM for the second.

Compared with `CC(O)C1CCCCN1C(=O)c1ccc(-c2ccc(-c3nc4ccc(F)cc4[nH]3)cc2)cc1` (centres undefined), `Cn1cncc1C(=O)Nc1cccc(-c2ccc(-c3nc4ccc(F)cc4[nH]3)cc2)c1` is 1.7-fold higher in IC50: 440 nM for the first, 730 nM for the second. The first is the more potent here.

`COc1ccc(CN(C)Cc2ccc(NC(=O)c3cccc4c(=O)c5cccc(C)c5[nH]c34)cc2)cc1OC` and `Cn1cc(C2CCN(CCCCNC(=O)c3ccc(C(=O)Nc4ccc(C#N)cc4)cc3)CC2)c2ccccc21` are within 1.5-fold of each other in IC50: 840 nM for the first, 720 nM for the second.

Compared with `O=C(c1cccc(COc2ccc3c(c2)CCN(C2CCCC2)CC3)c1)N1CCN(c2ccncc2)CC1`, `O=C(N1CCN(c2ccnc3cc4c(cc23)N(Cc2ccccc2)CC4)CC1)C(F)(F)F` is 2.8-fold lower in IC50: 740 nM for the first, 260 nM for the second. The second is the more potent here.

`CN(C)c1ccc(-c2csc(C(=O)NCC3CCN(Cc4ccc(C(C)(C)C)cc4)C3)c2)cc1` (centres undefined) and `CC(C)(C)CCN1CCC(CNC(=O)c2cc(-c3cccc(C(F)(F)F)c3)cs2)C1` (centres undefined) are within 1.5-fold of each other in IC50: 990 nM for the first, 890 nM for the second.

`N#Cc1ccc(NC2(C(=O)N3CCN(c4cccc(Cl)c4)CC3)CC2)c2ccccc12` and `N#Cc1ccc(NC(=NCc2ccc(Cl)cc2Cl)Nc2cccc(Cl)c2Cl)c(O)c1` are within 1.5-fold of each other in IC50: 1150 nM for the first, 1120 nM for the second.

`CCCO[C@H](C(=O)OC)[C@@H](CC1Cc2ccccc2C1)C(=O)NCCC1=CCCCC1` and `COc1ccc(NC(=O)[C@H](CC(C)C)Nc2cc(C)nc(NCC3CCCCC3)n2)cc1` are within 1.5-fold of each other in IC50: 970 nM for the first, 1100 nM for the second.

`CCn1c(-c2nonc2N)nc2c(-c3cccc(NC(=O)Nc4ccc(Cl)cc4)c3)ncc(OCCCN)c21` and `CCOc1ccc(-c2nonc2NC(=O)c2ccc(OC)cc2)cc1OCC` are within 1.5-fold of each other in IC50: 830 nM for the first, 820 nM for the second.

`Brc1cc(Br)c2c(c1)C(NCCCNC1CCNc3c(Br)cc(Br)cc31)CCN2` (centres undefined) and `COc1ccc2nccc(N3CCC(CCNCc4cc5c(cn4)OCCO5)CC3)c2c1` are within 1.5-fold of each other in IC50: 820 nM for the first, 870 nM for the second.

`Cc1nc(C)c(-c2ccc(Oc3ccc(OC(F)(F)F)cc3)cc2)c(OC(=O)N(CCNC(C)C)C(C)C)c1Br` and `CC(C)C[C@@H](NC(=O)OC(C)(C)C)C(=O)Nc1ccc(Cc2ccc(NC(=O)[C@@H](CC(C)C)NC(=O)OC(C)(C)C)cc2)cc1` are within 1.5-fold of each other in IC50: 170 nM for the first, 210 nM for the second.

Compared with `Cc1nc2ccc3ccc(CNc4ccc(C(=O)CC(CCC(=O)O)C(=O)O)cc4)cc3c2c(=O)[nH]1` (centres undefined), `CCOC(=O)/C(=N\OC(C)(C)C(=O)NCc1ccc(O)c(O)c1)c1csc(NC(c2ccccc2)(c2ccccc2)c2ccccc2)n1` is 4.2-fold higher in IC50: 40 nM for the first, 170 nM for the second.

`CCOC(=O)c1c(CN2CCCC2)n(-c2ccccc2)c2cc(Br)c(O)cc12` and `CCCCCOc1ccc(C(O)C(CN2CCCCC2)c2ccccc2)cc1` (centres undefined) are within 1.5-fold of each other in IC50: 1010 nM for the first, 880 nM for the second.

Compared with `Cc1cc2ncn(-c3ccnc(N4CCN(CCCN5CCCC5)CC4)n3)c2cc1C`, `c1ccc2[nH]c(-c3ccc(-c4ccc(CN5CCN(CCN6CCOCC6)CC5)cc4)cc3)nc2c1` is 5.2-fold lower in IC50: 830 nM for the first, 160 nM for the second. The second is the more potent here.

`O=C(Nc1cccnc1)c1cc(-c2cccnc2)nc2ccc(Cl)cc12` and `CC(C)Oc1cc2c(cc1NS(=O)(=O)c1ccc(-c3ccc(Cl)cc3)cc1F)CCN(C)CC2` are within 1.5-fold of each other in IC50: 1060 nM for the first, 920 nM for the second.

First: CCCc1ccc(S(=O)(=O)NC2CCN(c3ccnc(Nc4ccc(F)cc4)n3)C2)cc1 (centres undefined)
Second: CCC1CN(S(=O)(=O)c2ccc3c(c2)NC(=O)CC(=O)N3)c2cc(Cl)ccc2O1 (centres undefined)
The IC50 of the first is 1.5-fold higher: 1010 nM for the first, 660 nM for the second.

`O=C(/C=C/c1ccc(Cl)c(Cl)c1)NCCCCCN1CCC(NC(=S)Nc2ccc(Cl)c(Cl)c2)CC1` and `CN1CCN(c2ccnc3cc4c(cc23)N(C(=O)Nc2ccc3c(c2)CCCC3=O)CC4)CC1` are within 1.5-fold of each other in IC50: 530 nM for the first, 620 nM for the second.

For `CCCc1cc(Cc2cnc(N)nc2N)cc2c1OC(C)C2C` (centres undefined), the IC50 was 670 nM.
